Patent US9315535B2, “Nucleoside and nucleotide having nitrogen-containing heterocycle structure” (SHIONOGI & CO., LTD., priority 2013, dated 2016)

Legend:
[1] = tested on: RNA complementary strand (sense strand 3′-CGC AAA AAA CGA-5′); assay: Melting temperature (Tm) of oligonucleotide hybridized to the RNA complementary strand; assay type: binding
Protocol: (§1) Nitrogen stream was passed through the cell chamber of the spectrophotometer (SHIMADZU UV-1800) to prevent dew condensation, and the sample solution was gradually cooled to 5° C. and kept at 5° C. for 15 minutes before starting the measurements. The temperature was raised to 90° C. at the rate of 0.5° C./min while ultraviolet absorption spectra were measured at 260 nm at intervals of 0.5° C. Lidded cells were used to prevent concentration change due to rising temperature.
(§2) The method for determining the Tm values was a method similar to (1).
as §2

[2] = tested on: DNA complementary strand (sense strand 3′-CGC AAA AAA CGA-5′); assay: Melting temperature (Tm) of oligonucleotide hybridized to the DNA complementary strand; assay type: binding
Protocol: as §1, §2, §2

[3] = Table 10, X = II-1 (compound I-1), 100 mM NaCl, 10 mM sodium phosphate buffer (pH 7.2), 4.0 μM each strand
[4] = Table 11, Xp = II-2 (compound IV-1), method similar to (1)
[5] = Table 12, nucleoside structure of compound VII-1 (II-3), method similar to (1)

Substance: 5′-d(GCG TTT TTT GCT)-3′ (DNA GCGTTTTTTGCT; DNA, backbone not given here) [oligonucleotide (0), nucleoside moieties of the oligonucleotide are unmodified, used as a control, reference compound]
- Tm, RNA complementary strand [1, 3]: 49.3 °C
- Tm, RNA complementary strand [1, 4]: 49.3 °C
- Tm, RNA complementary strand [1, 5]: 49.7 °C
- Tm, DNA complementary strand [2, 3]: 53.1 °C
- Tm, DNA complementary strand [2, 4]: 53.1 °C
- Tm, DNA complementary strand [2, 5]: 54.0 °C
